Reference: patent US20070032448A1, “Sugar modified nucleosides as viral replication inhibitors” (priority 2002, published 2007)
Like-named read-outs stand apart in the source and are kept apart here.

Assays:
[1] = system: HCV replicon RNA in replicon cells (Huh-7); assay: HCV replicon assay; format: cell-based, Hepatitis C virus
Procedure: The replicon cells (Huh-7) contain replicating HCV replicon RNA, which was modified in the structural region (replacing the structural region with a neomycin resistance marker). Survival of the replicon cells under G418 selection relies on the replication of HCV RNA and subsequently expression of neomycin phosphoryltransferase. The ability of modified nucleoside libraries and compounds to suppress HCV RNA replication was determined using the Quantigene Assay Kit from Bayer. The assay measures the reduction of HCV RNA molecules in the treated cells. Replicon cells were incubated at 37° C. for 3 days in the presence of nucleoside libraries and compounds before harvested for detection. An HCV subgenomic replicon cell line was provided by Dr. Bartenschlager. The assay protocol was modified based on literature procedure (V. Lohmann, F. Korner, J. O. Koch, U. Herian, L. Theilmann, R. Bartenschlager, Science, 1999, 285, 110-113).

[2] = Pharmacokinetics, intravenous and oral dosing; format: in vivo
[3] = system: mice; assay: Toxicity in mice; format: in vivo; conditions: 160 mg/kg dosing
[4] = 2′-beta-6-substituted adenosine derivatives, Huh-7 replicon cells, 3 days, read-out: HCV Replicon EC50
[5] = Hepatitis C virus, 72 h, 2′-beta-methyl cytidine and uridine derivatives, Huh-7 replicon cells, 3 days, read-out: HCV REPLICON EC50
[6] = Hepatitis C virus, Huh-7, 72 h, read-out: HCV Replicon EC50

Row | Structure (SMILES) | EC50 [1, 4] [µM] | EC50 [1, 6] [µM] | other results
1 | C[C@@]1(O)[C@H](O)[C@@H](CO)O[C@H]1n1cnc2c(N)ncnc21 [Compound P21] | < 10 |  | 
2 | CNc1ccn([C@@H]2O[C@H](CO)[C@@H](O)[C@@]2(C)O)c(=O)n1 [Compound P40] |  |  | EC50 [1, 5]: > 100 µM
3 | CC[C@@]1(O)[C@H](O)[C@@H](CO)O[C@H]1n1cnc2c(N(C)C)ncnc21 [Compound P8, N^6-Dimethyl-2′-C-ethyladenosine] | > 100 |  | 
4 | CC[C@@]1(O)[C@H](O)[C@@H](CO)O[C@H]1n1cnc2c(OC)ncnc21 [Compound P10, 9-(2-C-ethyl-β-D-ribofuranosyl)-6-methoxy-purine] |  | > 100 | 
5 | CSc1ncnc2c1ncn2[C@@H]1O[C@H](CO)[C@@H](O)[C@]1(O)C1CC1 [Compound P19, 9-(2-C-Cyclopropyl-β-D-ribofuranosyl)-6-methylmercaptopurine] |  | > 100 | 
6 | C=C[C@@]1(O)[C@H](O)[C@@H](CO)O[C@H]1n1cnc2c(OC)ncnc21 [Compound P15, 9-(2-C-vinyl-β-D-ribofuranosyl)-6-methoxy-purine] |  | > 100 | 
7 | C[C@@]1(O)[C@H](O)[C@@H](CO)O[C@H]1n1ccc(N)nc1=O [Compound P37, 2′-β-C-Methylcytidine] |  |  | EC50 [1, 5]: < 10 µM
8 | CC[C@@]1(O)[C@H](O)[C@@H](CO)O[C@H]1n1cnc2c(NC)ncnc21 [Compound P7, N^6-Methyl-2′-C-ethyladenosine] |  | > 100 | 
9 | CN(C)c1ncnc2c1ncn2[C@@H]1O[C@H](CO)[C@@H](O)[C@]1(O)C1CC1 [Compound P18, N^6-Dimethyl-2′-C-cyclopropylyladenosine] | > 100 |  | 
10 | Cc1cn([C@@H]2O[C@H](CO)[C@@H](O)[C@@]2(C)O)c(=O)nc1N [Compound P38] |  |  | EC50 [1, 5]: > 100 µM
11 | CSc1ncnc2c1ncn2[C@@H]1O[C@H](CO)[C@@H](O)[C@@]1(C)O [Compound P24, 6-Thiomethyl-9H-(2′-C-methyl-β-D-ribofuranosyl)adenine] | < 10 |  | increase of bioavailability compared to Ribavirin ([2]; in vivo): approximately 4 times; AUC ([2]; intravenous dosing): 1950.6 ng·h/mL; C0 ([2]; intravenous dosing): 3452.4 ng/mL; t1/2b ([2]; intravenous dosing): 25.8 min; AUC ([2]; oral dosing): 1953.5 ng·h/mL; Cmax ([2]; oral dosing): 1085.0 ng/mL; Tmax ([2]; oral dosing): 45 min; t1/2β ([2]; oral dosing): 71.4 min; bioavailability ([2]; oral vs intravenous dosing): 100%; body weight, food consumption, and behavior [3]: normal; tissue and organ abnormalities [3]: No tissue and organ abnormalities were observed; toxicity [3]: did not show toxicity
12 | CC[C@@]1(O)[C@H](O)[C@@H](CO)O[C@H]1n1cnc2c(SC)ncnc21 [Compound P9, 9-(2-C-Ethyl-β-D-ribofuranosyl)-6-methylmercaptopurine] |  | > 100 | 
13 | COc1ncnc2c1ncn2[C@@H]1O[C@H](CO)[C@@H](O)[C@@]1(C)O [Compound P25] | < 10 |  | 
14 | Nc1ncnc2c1ncn2[C@@H]1O[C@H](CO)[C@@H](O)[C@]1(O)C1CC1 [Compound P16, 2′-C-Cyclopropyladenosine] |  | > 100 | 
15 | CNc1nc(=O)n([C@@H]2O[C@H](CO)[C@@H](O)[C@@]2(C)O)cc1C [Compound P43] |  |  | EC50 [1, 5]: > 100 µM
16 | C=C[C@@]1(O)[C@H](O)[C@@H](CO)O[C@H]1n1cnc2c(N(C)C)ncnc21 [Compound P13, N^6-Dimethyl-2′-C-vinyladenosine] | > 100 |  | 
17 | C=C[C@@]1(O)[C@H](O)[C@@H](CO)O[C@H]1n1cnc2c(N)ncnc21 [Compound P11, 2′-C-Vinyladenosine] |  | > 100 | 
18 | CNc1ncnc2c1ncn2[C@@H]1O[C@H](CO)[C@@H](O)[C@]1(O)C1CC1 [Compound P17, N^6-Methyl-2′-C-cyclopropylyladenosine] | > 100 |  | 
19 | CNc1ncnc2c1ncn2[C@@H]1O[C@H](CO)[C@@H](O)[C@@]1(C)O [Compound P22, N^6-Methyl-9H-(2′-C-methyl-β-D-ribofuranosyl)adenine] | < 10 |  | 
20 | C=C[C@@]1(O)[C@H](O)[C@@H](CO)O[C@H]1n1cnc2c(NC)ncnc21 [Compound P12, N^6-Methyl-2′-C-vinyladenosine] |  | > 100 | 
21 | CN(C)c1ccn([C@@H]2O[C@H](CO)[C@@H](O)[C@@]2(C)O)c(=O)n1 [Compound P41] |  |  | EC50 [1, 5]: > 100 µM
22 | Cc1cn([C@@H]2O[C@H](CO)[C@@H](O)[C@@]2(C)O)c(=O)nc1O [Compound P42] |  |  | EC50 [1, 5]: > 100 µM
23 | Cc1cn([C@@H]2O[C@H](CO)[C@@H](O)[C@@]2(C)O)c(=O)nc1N(C)C [Compound P44] |  |  | EC50 [1, 5]: > 100 µM
24 | C=C[C@@]1(O)[C@H](O)[C@@H](CO)O[C@H]1n1cnc2c(SC)ncnc21 [Compound P14, 9-(2-C-Vinyl-β-D-ribofuranosyl)-6-methylmercaptopurine] |  | > 100 | 
25 | CC[C@@]1(O)[C@H](O)[C@@H](CO)O[C@H]1n1cnc2c(N)ncnc21 [Compound P6, 2′-C-Ethyladenosine] |  | > 100 | 
26 | COc1ncnc2c1ncn2[C@@H]1O[C@H](CO)[C@@H](O)[C@]1(O)C1CC1 [Compound P20, 9-(2-C-cyclopropyl-β-D-ribofuranosyl)-6-methoxypurine] |  | > 100 | 
27 | CN(C)c1ncnc2c1ncn2[C@@H]1O[C@H](CO)[C@@H](O)[C@@]1(C)O [Compound P23, N^6-Dimethyl-9H-(2′-C-methyl-β-D-ribofuranosyl)adenine] | < 10 |  | 
28 | C[C@@]1(O)[C@H](O)[C@@H](CO)O[C@H]1n1ccc(O)nc1=O [Compound P39] |  |  | EC50 [1, 5]: > 100 µM
